{"source": "patent US6844313B1", "about": "“Composition containing a meiosis activating substance” (Novo Nordisk A/S, priority 1999, dated 2005)", "key": {"[1]": {"test": "Solubility of FF-MAS in water, ethanol and ethanol/water", "type": "physicochemical", "method": "The solubility of a preferred MAS, i.e., FF-MAS, in water is very low, i.e., approximately 20 picogram/ml (corresponding to 2×10^−5 μg/ml), and in ethanol the solubility is substantially higher, i.e., approximately 4 mg/ml. According to our preliminary investigations, the highest solubility of FF-MAS in a mixture of ethanol and water (1:2.5) is approximately 0.4 mg/ml."}, "[2]": {"test": "Solubility and appearance of FF-MAS in water/ethanol containing HSA before evaporation", "type": "physicochemical", "conditions": "Example 3; ethanol/water mixture containing HSA", "method": "Prepare a saturated ethanolic solution of FF-MAS. Blend with an aqueous solution of the additive in the ration 1:2,5. By visual inspection control that surplus FF-MAS is available in the solution. Rotate the solution for 24 hours at room temperature. Filter the solution through 0,22 […] filter, determine the content of FF-MAS by HPLC and calculate the solubility. Transfer 350μl to 4-well dish and evaporate to dryness at room temperature. Add 500μl MEM AL- PHA medium (Gibcobal). If a clear solution is obtained within half an hour, the composition is tested on oocytes obtained from immature female mice. % GVB obtained is at least 50%, preferable 80%, vide example 1.\nIn this example, 3 products were prepared. Referring to the table below, the stock solution of FF-MAS used for product 1, 2, and 3 contained 50, 500 and 3330 μg/ml, respectively. For each of the products, the stock solution of HSA contained 20% HSA. The amount of said stock solutions used is stated in the table. For example, for product 1, 400 μl of the FF-MAS stock solution was mixed with 1000 μl of the HSA stock solution. After mixing of these stock solutions, the solutions were clear, and no precipitation was observed therein. After mixing, the amount thereof stated in the table was transferred to 4-well multi-dishes (Nuclon, Denmark). […]"}}, "note": "Read-outs that look alike come from different tables or passages of the source."}
{"smiles": "CC(C)=CCC[C@@H](C)[C@H]1CC=C2C3=C(CC[C@@]21C)[C@@]1(C)CC[C@H](O)C(C)(C)[C@@H]1CC3", "note": "[FF-MAS, 4,4-dimethyl-5 α-cholesta-8,14,24-triene-3β-ol]", "values": [{"measurement": "solubility", "setting": "[1]; ethanol, organic solvent or mixture, read-out: solubility in ethanol", "result": "~4000", "unit": "µg/mL"}, {"measurement": "solubility", "setting": "[1]; ethanol/water (1:2.5), aqueous with cosolvent or surfactant or cyclodextrin, ethanol and water (1:2.5), no additive, preliminary investigations, read-out: highest solubility in a mixture of ethanol and water (1:2.5)", "result": "~400", "unit": "µg/mL"}, {"measurement": "solubility in water", "setting": "[1]; water", "result": "approximately 20 picogram/ml"}, {"measurement": "highest concentration of FF-MAS dissolved", "setting": "[2]", "result": 0.95, "unit": "mg/mL"}]}
